Structures can show the parent of a compound that is named as a salt.
The compounds below were run against T1, human NK-2 receptor (Homo sapiens, UniProt P21452) (assay: binding test, affinity for the human NK-2 receptor, competition with [125I]NKA on transfected CHO cell membranes). Details: not given.
T1 construct: expressed in transfected cells; host or cells: CHO (Chinese hamster ovary) cells, membranes
T1 sequence (P21452 1-398): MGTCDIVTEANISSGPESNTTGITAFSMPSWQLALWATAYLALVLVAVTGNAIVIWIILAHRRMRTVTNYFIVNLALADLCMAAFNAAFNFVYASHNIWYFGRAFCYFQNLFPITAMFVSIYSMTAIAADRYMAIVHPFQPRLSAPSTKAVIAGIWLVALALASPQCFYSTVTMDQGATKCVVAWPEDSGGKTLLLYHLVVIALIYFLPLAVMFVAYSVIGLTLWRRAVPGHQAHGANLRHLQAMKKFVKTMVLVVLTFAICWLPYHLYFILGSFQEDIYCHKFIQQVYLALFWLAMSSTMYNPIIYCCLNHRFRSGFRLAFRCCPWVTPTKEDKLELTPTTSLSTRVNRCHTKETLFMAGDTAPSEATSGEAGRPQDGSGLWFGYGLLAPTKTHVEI
Procedure: The evaluation of the antagonist activity on NK-2 receptors has been assessed by binding and functional tests according to that already described in literature in relation to NK-2 antagonists.
The test substances have been tested within a concentration range from 0.01 nM to 10 nM. At the end of the incubation time (30 min, 20° C.) the samples have been filtered and radioactivity has been determined using a gamma-counter.

Compound	pKi
N[C@H]1CCCC[C@@H]1NC(=O)[C@@H]1CC[C@H](NC(=O)[C@@H](Cc2ccccc2)NC(=O)C2(NC(=O)c3cc4ccccc4o3)CCCC2)C1.O=C(O)C(F)(F)F [Example 6]	9.7

Same assay, conditions: CHO cell membranes transfected with NK-2 receptor of human ileum; [125I]NKA 100 pM; 30 min, 20° C.

Ki [nM]	Compound	pKi
0.126	Cc1ccc(C=CC(=O)NC2(C(=O)NC(Cc3ccccc3)C(=O)NC3CCC(CN4CCOCC4)C3)CCc3ccccc32)cc1 (mixture of isomers) [Example 7, N^α[N^α(4(methyl)cinnamoyl)-(R,S)1-aminoindane-1-carboxy]-D-phenylalanine amide-N-[(1S,3R)-3-(morpholin-4-ylmethyl)cyclopentyl]]	
	NC1CCCCC1NC(=O)[C@@H]1C[C@@H](NC(=O)[C@@H](Cc2ccccc2)NC(=O)C2(NC(=O)c3cc4ccccc4s3)CCCC2)CN1 (relative stereo) [Example 36]	10.6
0.158	NC1CCCCC1NC(=O)C1CCC(NC(=O)C(Cc2ccccc2)NC(=O)C2(NC(=O)c3cc4ccccc4s3)CCCC2)C1 (single isomer, unassigned) [Example 2]	
0.251	NC1CCCCC1NC(=O)C1CCCC(NC(=O)C(Cc2ccccc2)NC(=O)C2(NC(=O)c3cc4ccccc4s3)CCCCC2)C1 (single isomer, unassigned) [Example 21]	
0.251	NC1CCCCC1NC(=O)C1CCC(NC(=O)C(Cc2ccccc2)NC(=O)C2(NC(=O)c3cc4ccccc4s3)CCCCC2)C1 (single isomer, unassigned) [Example 25]	
0.0501	NC1CCCCC1NC(=O)C1CCCC(NC(=O)C(Cc2ccccc2)NC(=O)C2(NC(=O)c3cc4ccccc4s3)CCCCC2)C1 (single isomer, unassigned) [Example 28]	
0.0126	NC1CCCCC1NC(=O)C1CCC(NC(=O)C(Cc2ccccc2)NC(=O)C2(NC(=O)c3cc4ccccc4s3)CCCC2)C1 (single isomer, unassigned) [Example 37]	
1.26	NC1CCCCC1NC(=O)C1CCC(NC(=O)C(Cc2ccccc2)NC(=O)C2(NC(=O)c3cc4ccccc4s3)CCCCC2)C1 (single isomer, unassigned) [Example 40]	
	NCCCCCNC(=O)C1CCCC(NC(=O)[C@@H](Cc2ccccc2)NC(=O)C2(NC(=O)c3cc4ccccc4s3)CCCCC2)C1.O=C(O)C(F)(F)F (stereo in doubt) [Example 22, N^γ{N^α[N^α(benzo[b]thiophen-2-ylcarbonyl)-1-aminocyclohexan-1-carboxy]-D-phenylalanyl}-3-cis-aminocyclohexan-1-carboxylic-acid-N-(5-aminopentyl)-amide trifluoroacetate salt]	9.2
	N[C@H]1CCCC[C@@H]1NC(=O)[C@@H]1CC[C@H](NC(=O)[C@@H](Cc2ccccc2)NC(=O)C2(NC(=O)c3ccc(-c4ccccc4)cc3)CCCC2)C1.O=C(O)C(F)(F)F [Example 3, N^γ{N^α[N^α(biphen-4-ylcarboxy)-1-aminocyclopentan-1-carboxy]-D-phenylalanyl}-(1R,3S)-3-aminocyclopentane-1-carboxylic-acid-N-((1S,2S)-2-aminocyclohexyl)amide trifluoroacetate salt]	9.6
	Cn1c(C(=O)NC2(C(=O)N[C@H](Cc3ccccc3)C(=O)N[C@H]3CC[C@@H](C(=O)N[C@H]4CCCC[C@@H]4N)C3)CCCC2)cc2ccccc21.O=C(O)C(F)(F)F [Example 4, N^γ{N^α[N^α(N-(methyl)indol-2-ylcarboxy)-1-aminocyclopentan-1-carboxy]-D-phenylalanyl}-(1R,3S)-3-aminocyclopentane-1-carboxylic-acid-N-((1S,2S)-2-aminocyclohexyl) amide trifluoroacetate salt]	9.8
	Cc1ccc(C=CC(=O)NC2(C(=O)N[C@H](Cc3ccccc3)C(=O)N[C@H]3CC[C@@H](C(=O)N[C@H]4CCCC[C@@H]4N)C3)CCCC2)cc1.O=C(O)C(F)(F)F [Example 5, N^γ{N^α[N^α[4-(methyl)cynnamoyl]-1-aminocyclopentan-1-carboxy]-D-phenylalanyl}-(1R,3S)-3-aminocyclopentane-1-carboxylic-acid-N-((1S,2S)-2-aminocyclohexyl)amide trifluoroacetate salt]	9.7
1.58	Cc1ccc(C[C@@H](NC(=O)C2(NC(=O)c3cc4ccccc4s3)CCCC2)C(=O)N[C@H]2CC[C@@H](C(=O)N[C@H]3CCCC[C@@H]3N(C)C)C2)cc1 [Example 9, N^γ{N^α[N^α(benzo[b]thiophen-2-ylcarbonyl)-1-aminocyclopentan-1-carboxy]-D-4-methyl-phenylalanyl}-(1R,3S)-3-aminocyclopentane-1-carboxylic-acid-N-(1S,2S)-2-dimethyl aminocyclohexyl)amide hydrochloride salt]	
0.501	Cc1ccc(C=CC(=O)NC2(C(=O)NC(Cc3ccccc3)C(=O)NC3CCC(C(=O)NC4CCCCC4N(C)C)C3)CCCC2)cc1 [Example 10, N^γ{N^α[N^α(4-methyl-cinnamoyl)-1-aminocyclopentan-1-carboxy]-D-phenylalanyl}-(1R,3S)-3-aminocyclopentane-1-carboxylic-acid-N-((1S,2S)-2-dimethylaminocyclohexyl)amide hydrochloride salt]	
2	CN(C)[C@H]1CCCC[C@@H]1NC(=O)[C@@H]1CC[C@H](NC(=O)[C@@H](Cc2ccccc2)NC(=O)C2(NC(=O)c3cc4ccccc4o3)CCCC2)C1 [Example 11, N^γ{N^α[N^α(benzofuran-2-ylcarboxy)-1-aminocyclopentan-1-carboxy]-D-phenylalanyl}-(1R,3S)-3-aminocyclopentane-1-carboxylic-acid-N-((1S,2S)-2-dimethylaminocyclohexyl)amide hydrochloride salt]	
0.316	CN(C)[C@H]1CCCC[C@@H]1NC(=O)[C@@H]1CC[C@H](NC(=O)[C@@H](Cc2ccccc2)NC(=O)C2(NC(=O)c3ccc(-c4ccccc4)cc3)CCCC2)C1 [Example 12, N^γ{N^α[N^α(biphen-4-ylcarbonyl)-1-aminocyclopentan-1-carboxy]-D-phenylalanyl}-(1R,3S)-3-aminocyclopentane-1-carboxylic-acid-N-((1S,2S)-2-dimethylaminocyclohexyl)amide hydrochloride salt]	
1	CN(C)[C@H]1CCCC[C@@H]1NC(=O)[C@@H]1CC[C@H](NC(=O)[C@@H](Cc2ccccc2)NC(=O)C2(NC(=O)c3cc4ccccc4n3C)CCCC2)C1 [Example 13, N^γ{N^α[N^α((methyl)indol-2-ylcarboxy)-1-aminocyclopentan-1-carboxy]-D-phenylalanyl}-(1R,3S)-3-aminocyclopentane-1-carboxylic-acid-N-((1S,2S)-2-dimethylaminocyclohexyl)amide hydrochloride salt]	
	CC[C@@](C)(NC(=O)c1cc2ccccc2s1)C(=O)N[C@H](Cc1ccccc1)C(=O)N[C@H]1CC[C@@H](C(=O)N[C@H]2CCCC[C@@H]2N)C1.O=C(O)C(F)(F)F [Example 14, N^γ{N^α[N^α(benzo[b]thiophen-2-ylcarbonyl)-(R)-α-methyl-α-ethylglycyl]-D-phenylalanyl}-(1R,3S)3-amino cyclopentane-1-carboxylic-acid-N-((1S,2S)-2-aminocyclohexyl) amide trifluoroacetate salt]	9.9
	CC[C@@](C)(NC(=O)C=Cc1ccc(C)cc1)C(=O)N[C@H](Cc1ccccc1)C(=O)N[C@H]1CC[C@@H](C(=O)N[C@H]2CCCC[C@@H]2N)C1.O=C(O)C(F)(F)F [Example 15, N^γ{N^α[N^α(4-methylcinnamoyl)-(R)-α-methyl-α-ethylglycyl]-D-phenylalanyl}-(1R,3S)-3-amino cyclopentane-1-carboxylic-acid-N-((1S,2S)-2-aminocyclohexyl) amide trifluoroacetate salt]	10.0
0.501	Cc1ccc(C[C@@H](NC(=O)C2(NC(=O)c3ccc(-c4ccccc4)cc3)CCCC2)C(=O)N[C@H]2CC[C@@H](C(=O)N[C@H]3CCCC[C@@H]3N)C2)cc1 [Example 16, N^γ{N^α[N^α(biphenyl-4-carboxy)-1-aminocyclopentan-1-carboxy]-R-3(4(methyl)phenyl)alanyl}-(1R,3S)-3-aminocyclopentane-1-carboxylic-acid-N-((1S,2S)-2-aminocyclohexyl) amide hydrochloride salt]	
2.51	Cc1ccc(C[C@@H](NC(=O)C2(NC(=O)c3cc4ccccc4n3C)CCCC2)C(=O)N[C@H]2CC[C@@H](C(=O)N[C@H]3CCCC[C@@H]3N)C2)cc1 [Example 17, N^γ{N^α[N^α(N-(methyl)indol-2-ylcarboxy)-1-aminocyclopentan-1-carboxy]-R-3-(4-methyl)phenyl)alanyl}-(1R,3S)-3-aminocyclopentane-1-carboxylic-acid-N-((1S,2S)-2-aminocyclohexyl)amide hydrochloride salt]	
0.794	Cc1ccc(C=CC(=O)NC2(C(=O)NC(Cc3ccc(C)cc3)C(=O)NC3CCC(C(=O)NC4CCCCC4N)C3)CCCC2)cc1 [Example 18, N^γ{N^α[N^α(4-(methyl)cynnamoyl)-1-aminocyclopentan-1-carboxy]-R-3[4-methyl)phenyl]alanyl}-(1R,3S)-3-aminocyclopentane-1-carboxylic-acid-N-((1S,2S)-2-aminocyclohexyl)amide hydrochloride salt]	
	CCCCN(CCCC)CCCNC(=O)[C@@H](Cc1ccccc1)NC(=O)C1(NC(=O)c2cc3ccccc3s2)CCCCC1 [Example 19, N^α[N^α(benzo[b]thiophen-2-yl-carbonyl)-1-aminocyclohexan-1-carboxy]-D-phenylalanine-N-{3-[bis(n-butyl)amino]propyl}amide]	8.9

From US7273856B2, “Linear basic compounds having NK-2 antagonist activity and formulations thereof” (Menarini Ricerche S.P.A., priority 2001, dated 2007)
